Assay results taken from ChEMBL document CHEMBL1201862, “PubChem BioAssay data set” (2004).
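Growth conditions: 96-well plates. Treatment: test compound, 48 hours, 5 concentrations. Analysis: linear interpolation between bracketing concentrations; unreached endpoints set to highest concentration. GI50 = concentration required for 50% inhibition of growth.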 Active and inactive are the calls of the source. Rule as the data show it: active = GI50 up to about 1.1 µM and inactive = higher.

What was measured:
Test in all cases: NCI tumour cell line growth inhibition, 48 h
MDA-MB-435 = tested on: MDA-MB-435
SK-MEL-2 = tested on: SK-MEL-2
T47D = tested on: T47D
786-0 = tested on: 786-0
MDA-MB-231 = tested on: MDA-MB-231
UACC-257 = tested on: UACC-257
SNB-75 = tested on: SNB-75
KM12 = tested on: KM12
Hs-578T = tested on: Hs-578T
HCC 2998 = tested on: HCC 2998
UO-31 = tested on: UO-31
HCT-15 = tested on: HCT-15
RPMI-8226 = tested on: RPMI-8226
SW-620 = tested on: SW-620
NCI-H460 = tested on: NCI-H460
SF-539 = tested on: SF-539
HOP-92 = tested on: HOP-92
CCRF-CEM = tested on: CCRF-CEM
SK-MEL-28 = tested on: SK-MEL-28
Malme-3M = tested on: Malme-3M
NCI-H226 = tested on: NCI-H226
U-251 = tested on: U-251
SF-295 = tested on: SF-295
EKVX = tested on: EKVX
MCF7 = tested on: MCF7
SNB-19 = tested on: SNB-19
M14 = tested on: M14
HCT-116 = tested on: HCT-116
MDA-N = tested on: MDA-N
HT-29 = tested on: HT-29
UACC-62 = tested on: UACC-62
A549 = tested on: A549
NCI/ADR-RES = tested on: NCI/ADR-RES
A498 = tested on: A498
OVCAR-5 = tested on: OVCAR-5
PC-3 = tested on: PC-3
OVCAR-8 = tested on: OVCAR-8
MOLT-4 = tested on: MOLT-4
K562 = tested on: K562
COLO 205 = tested on: COLO 205
IGROV-1 = tested on: IGROV-1
ACHN = tested on: ACHN
OVCAR-3 = tested on: OVCAR-3
SR = tested on: SR
TK-10 = tested on: TK-10
RXF 393 = tested on: RXF 393
DU-145 = tested on: DU-145
SK-MEL-5 = tested on: SK-MEL-5
NCI-H23 = tested on: NCI-H23
SN12C = tested on: SN12C
LOX IMVI = tested on: LOX IMVI
OVCAR-4 = tested on: OVCAR-4
SF-268 = tested on: SF-268
CAKI-1 = tested on: CAKI-1
BT-549 = tested on: BT-549
NCI-H522 = tested on: NCI-H522
SK-OV-3 = tested on: SK-OV-3
HOP-62 = tested on: HOP-62
HL-60 = tested on: HL-60

`NNC(=O)CSc1nc2ccccc2c(=O)n1N` was tested, and the GI50 (MDA-MB-435) was > 100 µM (inactive), the GI50 (SK-MEL-2) was 17.6 µM (inactive) and the GI50 (T47D) was > 100 µM (inactive). The GI50 (786-0) was 19 µM (inactive), the GI50 (MDA-MB-231) was 17.3 µM (inactive) and the GI50 (UACC-257) was > 100 µM (inactive). The GI50 (SNB-75) was 13.5 µM (inactive), the GI50 (KM12) was > 100 µM (inactive) and the GI50 (Hs-578T) was 29.7 µM (inactive). The GI50 (HCC 2998) was > 100 µM (inactive), the GI50 (UO-31) was > 100 µM (inactive) and the GI50 (HCT-15) was > 100 µM. The GI50 (RPMI-8226) was > 100 µM (inactive), the GI50 (SW-620) was > 100 µM (inactive) and the GI50 (NCI-H460) was 57.1 µM (inactive). For the same molecule, the GI50 (SF-539) was 31 µM (inactive), the GI50 (HOP-92) was 22.5 µM (inactive) and the GI50 (CCRF-CEM) was > 100 µM (inactive). For the same molecule, the GI50 (SK-MEL-28) was > 100 µM (inactive), the GI50 (Malme-3M) was 46.7 µM (inactive) and the GI50 (NCI-H226) was > 100 µM (inactive). The GI50 (U-251) was 19.1 µM (inactive), the GI50 (SF-295) was 31.4 µM (inactive) and the GI50 (EKVX) was 53.8 µM (inactive). The GI50 (MCF7) was 91.8 µM (inactive), the GI50 (SNB-19) was 14.9 µM (inactive) and the GI50 (M14) was > 100 µM (inactive). The GI50 (HCT-116) was 31.6 µM (inactive), the GI50 (MDA-N) was > 100 µM (inactive) and the GI50 (HT-29) was 22.2 µM (inactive). For the same molecule, the GI50 (UACC-62) was 27.6 µM (inactive), the GI50 (A549) was > 100 µM (inactive) and the GI50 (NCI/ADR-RES) was > 100 µM (inactive). For the same molecule, the GI50 (A498) was > 100 µM (inactive), the GI50 (OVCAR-5) was > 100 µM (inactive) and the GI50 (PC-3) was > 100 µM (inactive). For the same molecule, the GI50 (OVCAR-8) was 31.9 µM (inactive), the GI50 (MOLT-4) was > 100 µM (inactive) and the GI50 (K562) was > 100 µM (inactive). For the same molecule, the GI50 (COLO 205) was > 100 µM (inactive), the GI50 (IGROV-1) was > 100 µM (inactive) and the GI50 (ACHN) was 26.4 µM (inactive). For the same molecule, the GI50 (OVCAR-3) was > 100 µM (inactive), the GI50 (SR) was > 100 µM (inactive) and the GI50 (TK-10) was 16.3 µM (inactive). For the same molecule, the GI50 (RXF 393) was 31.7 µM (inactive), the GI50 (DU-145) was > 100 µM (inactive) and the GI50 (SK-MEL-5) was > 100 µM (inactive). The GI50 (NCI-H23) was 29.8 µM (inactive), the GI50 (SN12C) was 37.8 µM (inactive) and the GI50 (LOX IMVI) was 43.4 µM (inactive). For the same molecule, the GI50 (OVCAR-4) was > 100 µM (inactive), the GI50 (SF-268) was 39.9 µM (inactive) and the GI50 (CAKI-1) was 32.8 µM (inactive). For the same molecule, the GI50 (BT-549) was 42.1 µM (inactive) and the GI50 (NCI-H522) was 58.7 µM (inactive).

With `Cc1cc2c(O)c(c1)CN(CC(=O)O)Cc1cc(C)cc(c1O)CN(CC(=O)O)Cc1cc(C)cc(c1O)CN(CC(=O)O)C2` the GI50 (MDA-MB-435) was > 100 µM (inactive), the GI50 (SK-MEL-2) was > 100 µM (inactive) and the GI50 (T47D) was > 100 µM (inactive). The GI50 (786-0) was > 100 µM (inactive), the GI50 (SK-OV-3) was > 100 µM (inactive) and the GI50 (MDA-MB-231) was > 100 µM (inactive). For the same molecule, the GI50 (UACC-257) was > 100 µM (inactive), the GI50 (SNB-75) was > 100 µM (inactive) and the GI50 (KM12) was > 100 µM (inactive). The GI50 (Hs-578T) was > 100 µM (inactive), the GI50 (HCC 2998) was > 100 µM (inactive) and the GI50 (UO-31) was > 100 µM (inactive). The GI50 (HCT-15) was > 100 µM, the GI50 (RPMI-8226) was > 100 µM (inactive) and the GI50 (SW-620) was > 100 µM (inactive). The GI50 (NCI-H460) was > 100 µM (inactive), the GI50 (SF-539) was > 100 µM (inactive) and the GI50 (HOP-92) was 64.4 µM (inactive). The GI50 (CCRF-CEM) was > 100 µM (inactive), the GI50 (SK-MEL-28) was > 100 µM (inactive) and the GI50 (Malme-3M) was > 100 µM (inactive). The GI50 (NCI-H226) was > 100 µM (inactive), the GI50 (U-251) was > 100 µM (inactive) and the GI50 (SF-295) was > 100 µM (inactive). For the same molecule, the GI50 (EKVX) was > 100 µM (inactive), the GI50 (MCF7) was > 100 µM (inactive) and the GI50 (SNB-19) was > 100 µM (inactive). The GI50 (M14) was > 100 µM (inactive), the GI50 (HCT-116) was > 100 µM (inactive) and the GI50 (MDA-N) was > 100 µM (inactive). For the same molecule, the GI50 (HT-29) was > 100 µM (inactive), the GI50 (UACC-62) was > 100 µM (inactive) and the GI50 (A549) was > 100 µM (inactive). For the same molecule, the GI50 (NCI/ADR-RES) was > 100 µM (inactive), the GI50 (A498) was > 100 µM (inactive) and the GI50 (OVCAR-5) was > 100 µM (inactive). The GI50 (PC-3) was > 100 µM (inactive), the GI50 (OVCAR-8) was > 100 µM (inactive) and the GI50 (HOP-62) was > 100 µM (inactive). The GI50 (MOLT-4) was > 100 µM (inactive), the GI50 (K562) was > 100 µM (inactive) and the GI50 (COLO 205) was > 100 µM (inactive). The GI50 (ACHN) was > 100 µM (inactive), the GI50 (OVCAR-3) was > 100 µM (inactive) and the GI50 (SR) was > 100 µM (inactive). For the same molecule, the GI50 (TK-10) was > 100 µM (inactive), the GI50 (RXF 393) was > 100 µM (inactive) and the GI50 (DU-145) was > 100 µM (inactive). The GI50 (SK-MEL-5) was > 100 µM (inactive), the GI50 (NCI-H23) was > 100 µM (inactive) and the GI50 (SN12C) was > 100 µM (inactive). For the same molecule, the GI50 (LOX IMVI) was > 100 µM (inactive), the GI50 (OVCAR-4) was > 100 µM (inactive) and the GI50 (SF-268) was > 100 µM (inactive). For the same molecule, the GI50 (CAKI-1) was > 100 µM (inactive), the GI50 (BT-549) was > 100 µM (inactive) and the GI50 (NCI-H522) was > 100 µM (inactive).

`COc1cc(O)c2c(=O)c(OC)c(-c3ccc(OC)c(O)c3)oc2c1` [AYANIN] was tested, and the GI50 (HL-60) was > 100 µM (inactive), the GI50 (MDA-MB-435) was 34.7 µM (inactive) and the GI50 (SK-MEL-2) was > 100 µM (inactive). The GI50 (T47D) was 3.83 µM (inactive), the GI50 (786-0) was 12.5 µM (inactive) and the GI50 (SK-OV-3) was 35.7 µM (inactive). For the same molecule, the GI50 (MDA-MB-231) was 14.8 µM (inactive), the GI50 (UACC-257) was 85.7 µM (inactive) and the GI50 (SNB-75) was 6.14 µM (inactive). For the same molecule, the GI50 (KM12) was 35.7 µM (inactive), the GI50 (Hs-578T) was 7.85 µM (inactive) and the GI50 (HCC 2998) was 28.2 µM (inactive). For the same molecule, the GI50 (UO-31) was 28.9 µM (inactive), the GI50 (HCT-15) was 14.3 µM and the GI50 (RPMI-8226) was 33.1 µM (inactive). For the same molecule, the GI50 (SW-620) was > 100 µM (inactive), the GI50 (NCI-H460) was 14 µM (inactive) and the GI50 (SF-539) was 18.4 µM (inactive). For the same molecule, the GI50 (CCRF-CEM) was 23.6 µM (inactive), the GI50 (SK-MEL-28) was > 100 µM (inactive) and the GI50 (Malme-3M) was 24 µM (inactive). The GI50 (NCI-H226) was > 100 µM (inactive), the GI50 (U-251) was > 100 µM (inactive) and the GI50 (SF-295) was 7.78 µM (inactive). For the same molecule, the GI50 (EKVX) was 62.5 µM (inactive), the GI50 (MCF7) was 15.5 µM (inactive) and the GI50 (SNB-19) was > 100 µM (inactive). The GI50 (M14) was 52.2 µM (inactive), the GI50 (HCT-116) was 32.1 µM (inactive) and the GI50 (MDA-N) was 73.1 µM (inactive). The GI50 (HT-29) was 79.1 µM (inactive), the GI50 (UACC-62) was 23.5 µM (inactive) and the GI50 (A549) was 76.6 µM (inactive). For the same molecule, the GI50 (NCI/ADR-RES) was > 100 µM (inactive), the GI50 (A498) was 3.44 µM (inactive) and the GI50 (OVCAR-5) was 37.4 µM (inactive). For the same molecule, the GI50 (PC-3) was 30.8 µM (inactive), the GI50 (OVCAR-8) was 66.5 µM (inactive) and the GI50 (HOP-62) was 31.5 µM (inactive). For the same molecule, the GI50 (MOLT-4) was 42.7 µM (inactive), the GI50 (K562) was 60.5 µM (inactive) and the GI50 (COLO 205) was 76.9 µM (inactive). The GI50 (IGROV-1) was 25.4 µM (inactive), the GI50 (ACHN) was 33.1 µM (inactive) and the GI50 (OVCAR-3) was 63.8 µM (inactive). For the same molecule, the GI50 (SR) was 22.1 µM (inactive), the GI50 (TK-10) was 17.6 µM (inactive) and the GI50 (RXF 393) was 57.3 µM (inactive). The GI50 (DU-145) was 20 µM (inactive), the GI50 (SK-MEL-5) was 20.4 µM (inactive) and the GI50 (NCI-H23) was 69.5 µM (inactive). The GI50 (SN12C) was 61.9 µM (inactive), the GI50 (LOX IMVI) was 20.7 µM (inactive) and the GI50 (OVCAR-4) was 22.1 µM (inactive). The GI50 (SF-268) was 33.2 µM (inactive), the GI50 (CAKI-1) was 6.71 µM (inactive) and the GI50 (BT-549) was 20.4 µM (inactive). The GI50 (NCI-H522) was 29.1 µM (inactive).
